Assay results as given in patent US11298330B2, “Magnesium compositions and methods of use” (Neurocentria, Inc., priority 2017, dated 2022).

Tests used:
[1] = test system: diabetic patients; conditions: 720 mg/day for three months; cited from earlier work
[2] = test system: cultured rat hippocampal neurons; assay: Probability of transmitter release (Pr) by FM dye uptake; assay type: cell-based; conditions: extracellular magnesium concentration from 0.8 mM to 1.2 mM for 4 h
Description: An example of the effect of calcium and magnesium on the regulation of Probability of transmitter release (Pr) is shown in FIG. 3. In an experiment, rat hippocampal neurons were cultured in vitro in varying concentrations of extracellular calcium or magnesium, thereby effectively varying concentrations of intracellular calcium or magnesium. A traceable dye was used as a model neurotransmitter to measure the change in Pr. […] Furthermore, at a relatively low intracellular calcium concentration, the inverse relationship between intracellular magnesium concentration and Pr was more apparent, as shown in FIG. 3B. At a low calcium concentration condition, increasing the extracellular magnesium concentration promoted more synapses with a higher intracellular magnesium concentrations and low Pr values. […]
The Probability of transmitter release (Pr) of cultured rat hippocampal neurons was measured by quantification of N-β-Triethylammoniumpropyl)-4-(4-(Dibutylamino) Styryl) Pyridinium Dibromide (FM) dye uptake following a string of 30 single 1 Hertz (Hz) action potentials (Pr1Ap). […] Intracellular magnesium concentration was quantified by the intensity of MgGreen (MgGrn), a fluorescent dye that was proportional to magnesium concentration (Zhou et al., 2015).

[3] = test system: young (9-month old) and aged (25-month old) rats; conditions: food containing 2% magnesium oxide for 8 days, cited from earlier work
[4] = test system: diabetic patients; conditions: nearly 1 g of magnesium daily for 1 month; cited from earlier work

SMILES	blood magnesium levels raised, on average [1]	metabolic control as assessed by HbAlc levels [1]	effect on calcium-Pr relationship [2]	side-effect [3]	cognitive function ([3]; gain transient)	increase of serum magnesium level [4]	metabolic control [4]
[Mg+2] [magnesium]	about 10%	no improvement	shifted the calcium-Pr relationship to the right	–	–	–	–
[O]=[Mg] [magnesium oxide]	–	–	–	diarrhea and weight loss	some sign of improvement	about 10%	only minor improvement
